Each structure is given as a SMILES string.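 Assay format: 96-well plates, 48-hour exposure. GI50 is the concentration that inhibits growth by half.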 Active and inactive are the calls of the source. Rule as the data show it: active = GI50 up to about 1.1 µM and inactive = higher.

Data on 13 compounds can be found in ChEMBL document CHEMBL1201862, “PubChem BioAssay data set” (2004).

Some test systems named below: HCT-15; UACC-257; UO-31; RXF 393; HOP-92; MOLT-4; EKVX; HCT-116; TK-10; NCI-H226; RPMI-8226; OVCAR-3; K562; SK-MEL-28; HOP-62; OVCAR-8; DU-145; MDA-MB-231; PC-3.
What all share (assay): NCI tumour cell line growth inhibition, 48 h

As for `O=c1oc2ccccc2[n+]([O-])c1-c1ccccc1`, the GI50 in the experiment on HCT-15 is above 100 µM; with UACC-257 it was > 100 µM (inactive); in the experiment on UO-31, > 100 µM (inactive); with RXF 393, > 100 µM (inactive); with HOP-92, > 100 µM (inactive); in the experiment with MOLT-4 it was > 100 µM (inactive). Moreover, the GI50 in the experiment on EKVX, with HCT-116, in the experiment with TK-10, in the experiment on NCI-H226, in the experiment with RPMI-8226 and with OVCAR-3 was > 100 µM (inactive) each time. The GI50 in the experiment with K562, in the experiment with SK-MEL-28, with HOP-62 and in the experiment on OVCAR-8 was > 100 µM (inactive) in each case.

As for `O=C(/C=C/c1ccc(Cl)c(Cl)c1)c1ccc2ccccc2c1`, the GI50 was above 100 µM with HCT-15; > 100 µM (inactive) in the experiment on UACC-257; > 100 µM (inactive) in the experiment on UO-31; > 100 µM (inactive) with RXF 393; > 100 µM (inactive) in the experiment with HOP-92; 48.9 µM (inactive) in the experiment with MOLT-4. In addition, the GI50 in the experiment on EKVX was > 100 µM (inactive); in the experiment with HCT-116, > 100 µM (inactive); in the experiment on TK-10 it was > 100 µM (inactive); with NCI-H226, 70.5 µM (inactive); in the experiment with RPMI-8226, > 100 µM (inactive); in the experiment on OVCAR-3 it was > 100 µM (inactive). Also, the GI50 in the experiment on K562, in the experiment with SK-MEL-28, in the experiment with HOP-62 and in the experiment on OVCAR-8 was > 100 µM (inactive) each time.

For the compound `CC1(C)CC(=O)C(=CNc2nc(-c3ccc(Br)cc3)cs2)C(=O)C1`, the GI50 with HCT-15 is 21.2 µM; with UACC-257 it was 18.5 µM (inactive); in the experiment with DU-145, 43.9 µM (inactive); with UO-31, 21.9 µM (inactive); with HOP-92, 33 µM (inactive); in the experiment on MOLT-4 it was 27.9 µM (inactive). Moreover, the GI50 in the experiment with EKVX was 38.7 µM (inactive); in the experiment on HCT-116, 26.5 µM (inactive); in the experiment with TK-10, 11.5 µM (inactive); with NCI-H226 it was 45.3 µM (inactive); with MDA-MB-231 it was 31.8 µM (inactive); with OVCAR-3 it was 22.3 µM (inactive). Further, the GI50 with SK-MEL-28 was 34 µM (inactive); in the experiment with HOP-62, 31.3 µM (inactive); in the experiment with OVCAR-8, 51.1 µM (inactive); in the experiment with PC-3, 26.8 µM (inactive).

For the compound `Cc1ccc(S(=O)(=O)c2ccc(C)cc2[N+](=O)[O-])cc1`, the GI50 is above 100 µM in the experiment on HCT-15; 28.8 µM (inactive) with UACC-257; > 100 µM (inactive) in the experiment with UO-31; 82 µM (inactive) in the experiment on RXF 393; > 100 µM (inactive) in the experiment on HOP-92; 45.1 µM (inactive) in the experiment on MOLT-4. Moreover, the GI50 was > 100 µM (inactive) in the experiment with EKVX; 71.4 µM (inactive) in the experiment with HCT-116; > 100 µM (inactive) in the experiment on TK-10; > 100 µM (inactive) in the experiment with NCI-H226; > 100 µM (inactive) in the experiment on RPMI-8226; 46.9 µM (inactive) with OVCAR-3. Moreover, the GI50 in the experiment on K562 is 50.5 µM (inactive); in the experiment with SK-MEL-28, > 100 µM (inactive); in the experiment on HOP-62, > 100 µM (inactive).

On to `C(=C\c1c2oc(-c3ccccc3)cc(-c3ccccc3)c-2c2ccccc12)/C=C1\c2ccccc2-c2c(-c3ccccc3)cc(-c3ccccc3)[o+]c21.[O-][Cl+3]([O-])([O-])[O-]`, for which the GI50 is above 100 µM in the experiment on HCT-15; > 100 µM (inactive) in the experiment with UACC-257; > 100 µM (inactive) with UO-31; > 100 µM (inactive) with RXF 393; > 100 µM (inactive) in the experiment on HOP-92; > 100 µM (inactive) with MOLT-4. The GI50 in the experiment on EKVX, in the experiment with HCT-116, in the experiment on TK-10, in the experiment on NCI-H226, with RPMI-8226 and in the experiment with OVCAR-3 was > 100 µM (inactive) in each case. The GI50 in the experiment with K562, in the experiment on SK-MEL-28, with HOP-62 and in the experiment on OVCAR-8 was > 100 µM (inactive) each time.

`O=S(=O)(c1ccc(-c2nnc(-c3ccc(F)cc3)o2)cc1)c1ccc(-c2nnc(-c3ccc(F)cc3)o2)cc1`: the GI50 in the experiment on HCT-15 is above 100 µM; in the experiment with UACC-257, > 100 µM (inactive); in the experiment with DU-145, > 100 µM (inactive); in the experiment on UO-31 it was > 100 µM (inactive); in the experiment with RXF 393, 22.2 µM (inactive); with HOP-92, 82.4 µM (inactive). The GI50 in the experiment on MOLT-4 is > 100 µM (inactive); in the experiment on EKVX, > 100 µM (inactive); in the experiment on HCT-116 it was > 100 µM (inactive); in the experiment with NCI-H226, 61.5 µM (inactive); with RPMI-8226, > 100 µM (inactive); in the experiment on OVCAR-3, > 100 µM (inactive). The GI50 in the experiment with K562 is > 100 µM (inactive); in the experiment with HOP-62, 27 µM (inactive); in the experiment with OVCAR-8, > 100 µM (inactive); in the experiment with PC-3, > 100 µM (inactive).

`Cc1cc(C)c([O-])c(-[n+]2c(-c3ccccc3)cc(-c3ccccc3)cc2-c2ccccc2)c1`: the GI50 in the experiment on HCT-15 was 11.9 µM; with UACC-257, 2.94 µM (inactive); with UO-31, 18.9 µM (inactive); with RXF 393 it was 6.73 µM (inactive); in the experiment with HOP-92 it was 1.73 µM (inactive); in the experiment with MOLT-4 it was 2.67 µM (inactive). For the same compound, the GI50 was 8.07 µM (inactive) in the experiment on EKVX; 1.63 µM (inactive) in the experiment on HCT-116; 6.22 µM (inactive) in the experiment with TK-10; 10.1 µM (inactive) in the experiment on NCI-H226; 2.79 µM (inactive) in the experiment with RPMI-8226; 3.67 µM (inactive) in the experiment with OVCAR-3. Further, the GI50 in the experiment on K562 was 3.21 µM (inactive); with SK-MEL-28 it was 4.81 µM (inactive); in the experiment on HOP-62, 10.1 µM (inactive); with OVCAR-8 it was 4.33 µM (inactive).

As to `CC[C@]1(O)C(=O)OCc2c1cc1n(c2=O)Cc2cc3c(N)cccc3nc2-1`, the GI50 in the experiment on HCT-15 is above 100 µM; in the experiment on UACC-257, > 100 µM (inactive); with UO-31, > 100 µM (inactive); in the experiment on RXF 393, > 100 µM (inactive); in the experiment on HOP-92, > 100 µM (inactive); with MOLT-4, > 100 µM (inactive). For the same compound, the GI50 in the experiment on EKVX, in the experiment with HCT-116, with TK-10, in the experiment with NCI-H226, in the experiment on RPMI-8226 and with OVCAR-3 was > 100 µM (inactive) in each case. For the same compound, the GI50 with K562, with SK-MEL-28, in the experiment on HOP-62 and with OVCAR-8 was > 100 µM (inactive) in each case.

Turning to `COc1cccc2c1C1=CC(=O)CCC1C(C)(C)O2` (stereo not given), the GI50 is above 100 µM in the experiment with HCT-15; > 100 µM (inactive) in the experiment with UACC-257; > 100 µM (inactive) in the experiment with UO-31; 6.03 µM (inactive) in the experiment with RXF 393; > 100 µM (inactive) with HOP-92; > 100 µM (inactive) in the experiment on MOLT-4. Also, the GI50 was > 100 µM (inactive) in the experiment on EKVX; 47.6 µM (inactive) in the experiment on HCT-116; > 100 µM (inactive) in the experiment with TK-10; > 100 µM (inactive) in the experiment with NCI-H226; 20.6 µM (inactive) in the experiment with RPMI-8226; > 100 µM (inactive) with OVCAR-3. Also, the GI50 with K562, with SK-MEL-28, with HOP-62 and in the experiment with OVCAR-8 was > 100 µM (inactive) in each case.

Turning to `C[N+](C)(C)CCc1ccccc1`, the GI50 in the experiment with HCT-15 was above 100 µM; in the experiment on UACC-257, > 100 µM (inactive); with UO-31 it was > 100 µM (inactive); in the experiment with RXF 393, > 100 µM (inactive); with HOP-92 it was > 100 µM (inactive); in the experiment on MOLT-4, > 100 µM (inactive). Moreover, the GI50 in the experiment on EKVX, with HCT-116, in the experiment on TK-10, with NCI-H226, in the experiment on RPMI-8226 and with OVCAR-3 was > 100 µM (inactive) throughout. In addition, the GI50 with K562, in the experiment with SK-MEL-28, in the experiment on HOP-62 and with OVCAR-8 was > 100 µM (inactive) throughout.

Regarding `CCOC(=O)C(=CN1CCNC1=S)C(=O)OCC`, the GI50 in the experiment with HCT-15 is above 100 µM; in the experiment with UACC-257, > 100 µM (inactive); in the experiment on DU-145 it was > 100 µM (inactive); in the experiment with RXF 393, > 100 µM (inactive); in the experiment with MOLT-4, > 100 µM (inactive); with EKVX, > 100 µM (inactive). For the same compound, the GI50 in the experiment on HCT-116 was > 100 µM (inactive); with NCI-H226, > 100 µM (inactive); in the experiment on RPMI-8226, > 100 µM (inactive); with MDA-MB-231, > 100 µM (inactive); in the experiment on OVCAR-3, 0.288 µM (active); in the experiment with K562, > 100 µM (inactive). Besides, the GI50 with SK-MEL-28, in the experiment with HOP-62, in the experiment on OVCAR-8 and with PC-3 was > 100 µM (inactive) each time.

With `O=C(Cc1ccc(F)cc1)NC1=C(Cl)C(=O)c2ccccc2C1=O`, the GI50 with HCT-15 was 1.31 µM; in the experiment on UACC-257, 2.48 µM (inactive); in the experiment with UO-31 it was 2.51 µM (inactive); in the experiment on RXF 393, 1.05 µM (active); with HOP-92, 1.69 µM (inactive); in the experiment with MOLT-4 it was 1.79 µM (inactive). Further, the GI50 in the experiment with EKVX was 3.65 µM (inactive); with HCT-116, 2.36 µM (inactive); in the experiment with TK-10, 6.9 µM (inactive); with NCI-H226, 3.4 µM (inactive); in the experiment on RPMI-8226 it was 0.262 µM (active); in the experiment with OVCAR-3 it was 2.75 µM (inactive). Besides, the GI50 with K562 is 1.54 µM (inactive); with SK-MEL-28, 4.05 µM (inactive); with HOP-62, 10 µM (inactive); with OVCAR-8, 1.92 µM (inactive).

For the compound `COc1c(-c2ccccc2)oc2c(CP(=O)(OC)OC)cccc2c1=O`, the GI50 is > 100 µM (inactive) with UACC-257; > 100 µM (inactive) with DU-145; 11.7 µM (inactive) in the experiment with UO-31; > 100 µM (inactive) in the experiment on RXF 393; > 100 µM (inactive) in the experiment with MOLT-4; > 100 µM (inactive) with EKVX. In addition, the GI50 with HCT-116 is > 100 µM (inactive); in the experiment with TK-10, > 100 µM (inactive); in the experiment on RPMI-8226 it was 14.6 µM (inactive); in the experiment with MDA-MB-231 it was > 100 µM (inactive); in the experiment with OVCAR-3, > 100 µM (inactive); in the experiment with K562, > 100 µM (inactive). Further, the GI50 with HOP-62 and in the experiment on PC-3 was > 100 µM (inactive) each time.
